Results reported in patent US11324798B2, “Materials and methods for treatment of inflammation” (CYTOGEL PHARMA, LLC, priority 2010, dated 2022).
Where “and” joins values, the source holds several entries; their conditions need not be identical. Equal entries are not always repeated.

Columns and labels:
[1] = system: SP release from isolated rat tracheae; assay: Electrical field stimulation (EFS)-evoked release of SP from isolated rat tracheae, radioimmunoassay; type: cell-based; conditions: for SP Release into the incubation medium / Absolute release of SP: individual experiments 1-5; for SP Release into the incubation medium, Mean / Absolute release of SP, Mean: mean of 5 experiments
Method: (§1) For the in vitro release experiments, a 10 mg/ml (14.62 mM; MW 684) stock solution of CYT-1010 was made in DMSO, which was further diluted with the oxygenated Krebs solution used in the organ bath: 5.5 μl of this CYT-1010 stock solution was added into 40 ml Krebs to make the highest applied 2 μM concentration of compound CYT-1010. Further dilutions to obtain the lower concentrations were prepared with Krebs solution.
(§2) The incubation media containing the respective CYT-1010 concentrations were administered in the stimulated and post-stimulated 8-min fractions.
(§3) Since even the highest, 2 μM, concentration of CYT-1010 solution contained negligible amount of DMSO, simple Krebs solution was used in the control experiments.
(§4) Rats were exsanguinated in deep anaesthesia (sodium thiobarbital, 50 mg/kg i.p.), then the whole trachea was removed and cleaned of fat and adhering connective tissues. Tracheae from two rats were placed into the same 1.8 ml organ bath to obtain sufficient amount of released peptide and perfused (1 ml/min) with pH-(7.2) controlled oxygenized Krebs solution for 60 minutes (equilibration period) at 37° C. temperature. After discontinuation of the flow, the solution was changed three times for eight minutes to produce pre-stimulated, stimulated, post-stimulated fractions.
(§5) Electrical field stimulation (40 V, 0.1 ms, 10 Hz for 120 s; 1200 pulses) was performed to elicit neurotransmitter release at the beginning of the second 8-minute period. Stimulation with 0.1 ms pulse width selectively activates very fast Na^+ channels, which are only present in the membrane of neural structures (Birmingham and Wilson, 1963; Coburn and Tomita 1973; Szolcsányi and Barthó, 1982); therefore, it excites nerve endings without influencing other excitable cells in the tracheae such as smooth muscle cells.
(§6) Krebs solution was used in the pre-stimulated fraction for determining the basal CGRP outflow. During the stimulated and post-stimulated fractions, the incubation medium contained the examined concentrations of CYT-1010 (10, 100, 500, 1000 and 2000 nM) in separate experiments, and only one concentration was applied to the same tracheae to avoid neuropeptide depletion. In each group, 5 experiments were performed in parallel in 5 perfusion systems to provide n=5 data per group (10 tracheae per group).
(§7) 60 male Wistar rats (250-300 g) altogether were divided into 6 experimental groups: Group 1: controls (n=10); Group 2: 10 nM CYT-1010 (n=10); Group 3: 100 nM CYT-1010 (n=10); Group 4: 500 nM CYT-1010 (n=10); Group 5: 1000 nM CYT-1010 (n=10); and Group 6: 2000 nM CYT-1010 (n=10). The total study was performed on three experimental days, two groups every occasion.
(§8) Calcitonin gene-related peptide (CGRP) and substance P (SP) concentrations were determined from 400-400 μl samples of organ fluid of the preparations by means of radioimmunoassay methods described in Nemeth et al., 1996, 1998, 1999, 2006; Helyes et al., 1997, 2001, 2006; Borzsei et al., 2008). Each of these publications is incorporated herein by reference in its entirety.
(§9) The released amount of the peptides CGRP and SP was calculated as fmol peptide per mg wet tissue (trachea). The absolute release in response to EFS in each experiment was calculated by adding peptide release in the second and third 8-min fractions and then taking off the basal release measured in the first (pre-stimulated) fraction. The detection limits of the RIA assays were 0.2 fmol/tube and 2 fmol/tube for CGRP and SP, respectively.

[2] = system: CGRP release from isolated rat tracheae; assay: Electrical field stimulation (EFS)-evoked release of CGRP from isolated rat tracheae, radioimmunoassay; type: cell-based
Method: as §1, §2, §3, §4, §5, §6, §7, §8, §9

NC(Cc1ccc(O)cc1)C(=O)NC1CCCCNC(=O)C(Cc2ccccc2)NC(=O)C(Cc2c[nH]c3ccccc23)NC1=O [CYT-1010, H-Tyr-c-[D-Lys-Trp-Phe]]
Inhibition of EFS-evoked SP outflow ([1]; 500 nM, 0.5 µM): 64.3% and 64% | Inhibition of EFS-evoked SP outflow ([1]; 1000 nM (maximal inhibition), 1 µM): 71.8% and 72% | SP release, % increase above baseline ([1]; 1 microM, after stimulation): 16.32% | SP Release into the incubation medium ([1]; 1 microM, after stimulation (post-stimulated fraction)): 1.663 fmol/mg wet tissue and 1.966 fmol/mg wet tissue and 1.892 fmol/mg wet tissue and 1.551 fmol/mg wet tissue and 1.397 fmol/mg wet tissue | SP Release into the incubation medium, Mean ([1]; 1 microM, after stimulation): 1.694 fmol/mg wet tissue | SP release, % increase above baseline ([1]; 1 microM, before stimulation): 0.00% | SP Release into the incubation medium ([1]; 1 microM, before stimulation (pre-stimulated fraction)): 1.398 fmol/mg wet tissue and 1.806 fmol/mg wet tissue and 1.860 fmol/mg wet tissue and 1.412 fmol/mg wet tissue and 0.805 fmol/mg wet tissue | SP Release into the incubation medium, Mean ([1]; 1 microM, before stimulation): 1.456 fmol/mg wet tissue | SP release, % increase above baseline ([1]; 1 microM, during stimulation): 13.32% | SP Release into the incubation medium ([1]; 1 microM, during stimulation (stimulated fraction)): 1.558 fmol/mg wet tissue and 1.948 fmol/mg wet tissue and 1.992 fmol/mg wet tissue and 1.422 fmol/mg wet tissue and 1.331 fmol/mg wet tissue | SP Release into the incubation medium, Mean ([1]; 1 microM, during stimulation): 1.650 fmol/mg wet tissue | Absolute release of SP ([1]; 1 microM): 0.425 fmol/mg wet tissue and 0.302 fmol/mg wet tissue and 0.164 fmol/mg wet tissue and 0.149 fmol/mg wet tissue and 1.118 fmol/mg wet tissue | Absolute release of SP, Mean ([1]; 1 microM): 0.432 fmol/mg wet tissue | SP release, % increase above baseline ([1]; 2 microM, after stimulation): 6.72% | SP Release into the incubation medium ([1]; 2 microM, after stimulation (post-stimulated fraction)): 2.348 fmol/mg wet tissue and 1.531 fmol/mg wet tissue and 2.246 fmol/mg wet tissue and 1.543 fmol/mg wet tissue and 1.944 fmol/mg wet tissue | SP Release into the incubation medium, Mean ([1]; 2 microM, after stimulation): 1.922 fmol/mg wet tissue | SP release, % increase above baseline ([1]; 2 microM, before stimulation): 0.00% | SP Release into the incubation medium ([1]; 2 microM, before stimulation (pre-stimulated fraction)): 2.406 fmol/mg wet tissue and 1.582 fmol/mg wet tissue and 2.020 fmol/mg wet tissue and 1.132 fmol/mg wet tissue and 1.867 fmol/mg wet tissue | SP Release into the incubation medium, Mean ([1]; 2 microM, before stimulation): 1.801 fmol/mg wet tissue | SP release, % increase above baseline ([1]; 2 microM, during stimulation): 56.23% | SP Release into the incubation medium ([1]; 2 microM, during stimulation (stimulated fraction)): 3.130 fmol/mg wet tissue and 2.398 fmol/mg wet tissue and 2.334 fmol/mg wet tissue and 2.078 fmol/mg wet tissue and 4.132 fmol/mg wet tissue | SP Release into the incubation medium, Mean ([1]; 2 microM, during stimulation): 2.814 fmol/mg wet tissue | Absolute release of SP ([1]; 2 microM): 0.666 fmol/mg wet tissue and 0.765 fmol/mg wet tissue and 0.540 fmol/mg wet tissue and 1.357 fmol/mg wet tissue and 2.342 fmol/mg wet tissue | Absolute release of SP, Mean ([1]; 2 microM): 1.134 fmol/mg wet tissue | Effect on stimulation-evoked SP release ([1]; 10-2000 nM added to the second and third fractions): significantly inhibited | EC50 ([1]; sigmoidal concentration-response curve, non-linear least square fit, 10-2000 nM, read-out: EC50 for inhibition of electrically-evoked SP release): 34 nM | Effect on CGRP release in the third, post-stimulated fraction ([2]; 10 nM): did not influence | CGRP release, % increase above baseline ([2]; 10 nM, after stimulation): 105.75% | Release of CGRP into the incubation medium ([2]; 10 nM, after stimulation (post-stimulated 8-min fraction), individual experiments 1-5): 0.602 fmol/mg wet tissue and 0.730 fmol/mg wet tissue and 0.193 fmol/mg wet tissue and 0.204 fmol/mg wet tissue and 0.528 fmol/mg wet tissue | Release of CGRP into the incubation medium, Mean ([2]; 10 nM, after stimulation (post-stimulated fraction), mean of 5 experiments): 0.451 fmol/mg wet tissue | CGRP release, % increase above baseline ([2]; 10 nM, before stimulation): 0.00% | Release of CGRP into the incubation medium ([2]; 10 nM, before stimulation (pre-stimulated 8-min fraction), individual experiments 1-5): 0.220 fmol/mg wet tissue and 0.250 fmol/mg wet tissue and 0.146 fmol/mg wet tissue and 0.256 fmol/mg wet tissue and 0.226 fmol/mg wet tissue | Release of CGRP into the incubation medium, Mean ([2]; 10 nM, before stimulation (pre-stimulated fraction), mean of 5 experiments): 0.219 fmol/mg wet tissue | CGRP release, % increase above baseline ([2]; 10 nM, during stimulation): 105.75% | Release of CGRP into the incubation medium ([2]; 10 nM, during stimulation (stimulated 8-min fraction), individual experiments 1-5): 0.600 fmol/mg wet tissue and 0.420 fmol/mg wet tissue and 0.299 fmol/mg wet tissue and 0.308 fmol/mg wet tissue and 0.630 fmol/mg wet tissue | Release of CGRP into the incubation medium, Mean ([2]; 10 nM, during stimulation (stimulated fraction), mean of 5 experiments): 0.451 fmol/mg wet tissue | Absolute release of CGRP ([2]; 10 nM, individual experiments 1-5): 0.762 fmol/mg wet tissue and 0.650 fmol/mg wet tissue and 0.201 fmol/mg wet tissue and 0.001 fmol/mg wet tissue and 0.706 fmol/mg wet tissue | Absolute release of CGRP, Mean ([2]; 10 nM, mean of 5 experiments): 0.464 fmol/mg wet tissue | CGRP release, % increase above baseline ([2]; 100 nM, after stimulation): 39.26% | Release of CGRP into the incubation medium ([2]; 100 nM, after stimulation (post-stimulated 8-min fraction), individual experiments 1-5): 0.284 fmol/mg wet tissue and 0.135 fmol/mg wet tissue and 0.267 fmol/mg wet tissue and 0.231 fmol/mg wet tissue and 0.226 fmol/mg wet tissue | Release of CGRP into the incubation medium, Mean ([2]; 100 nM, after stimulation (post-stimulated fraction), mean of 5 experiments): 0.229 fmol/mg wet tissue | CGRP release, % increase above baseline ([2]; 100 nM, before stimulation): 0.00% | Release of CGRP into the incubation medium ([2]; 100 nM, before stimulation (pre-stimulated 8-min fraction), individual experiments 1-5): 0.243 fmol/mg wet tissue and 0.129 fmol/mg wet tissue and 0.128 fmol/mg wet tissue and 0.138 fmol/mg wet tissue and 0.183 fmol/mg wet tissue | Release of CGRP into the incubation medium, Mean ([2]; 100 nM, before stimulation (pre-stimulated fraction), mean of 5 experiments): 0.164 fmol/mg wet tissue
